{
  "source": "paper PMC10057847",
  "about": "“Precision engineering of biological function with large-scale measurements and machine learning” (PLOS ONE, 2023)",
  "molecular_target": "T1, pVER-IPTG-075 (also pVER-IPTG-138) (Escherichia coli, UniProt P03023, A81S/E100K/L148V/Q60R/S221N/S28G/T34M/V271L)",
  "T1 construct": "gene lacI; LacI expressed from pVER plasmid",
  "T1 sequence (P03023 whole entry S28G/T34M/Q60R/A81S/E100K/L148V/S221N/V271L)": "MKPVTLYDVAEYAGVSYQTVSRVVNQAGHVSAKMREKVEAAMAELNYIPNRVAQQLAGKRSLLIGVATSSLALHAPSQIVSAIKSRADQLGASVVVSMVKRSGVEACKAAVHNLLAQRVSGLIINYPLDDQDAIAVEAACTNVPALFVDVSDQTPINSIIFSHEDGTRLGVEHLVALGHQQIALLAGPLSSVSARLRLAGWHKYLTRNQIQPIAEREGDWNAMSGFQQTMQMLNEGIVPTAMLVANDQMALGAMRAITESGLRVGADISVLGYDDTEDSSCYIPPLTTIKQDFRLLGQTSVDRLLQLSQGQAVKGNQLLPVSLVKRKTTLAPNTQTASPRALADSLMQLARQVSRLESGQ",
  "test": "In vivo IPTG dose-response of LacI-regulated eYFP expression from the pVER plasmid in E. coli grown in rich M9 medium at 37 °C, measured by flow cytometry and fitted to the Hill equation by Bayesian MCMC (posterior mean and SD).",
  "type": "cell-based, E. coli MG1655Δlac",
  "conditions": "read-out: log_ec50 (base-10 logarithm of EC50 in μmol/L) (converted)",
  "experimental": "All reported measurements were completed using E. coli strain MG1655Δlac, in which the lactose operon of E. coli strain MG1655 (ATCC #47076) was replaced with the bleomycin resistance gene from Streptoalloteichus hindustanus (Shble).\nDose-response curves were measured with flow cytometry using E. coli MG1655Δlac transformed with variants of the pVER plasmid, described previously. The plasmid contained different variants of the lacI coding DNA sequence (CDS), as described in the text, and an expression cassette with enhanced yellow fluorescent protein (eYFP) under the control of the lactose operator (lacO). The lacI CDS was verified with Sanger sequencing for each variant.\nAll cultures were grown in a rich M9 media (3 g/L KH2PO4, 6.78 g/L Na2HPO4, 0.5 g/L NaCl, 1 g/L NH4Cl, 0.1 mmol/L CaCl2, 2 mmol/L MgSO4, 4% glycerol, and 20 g/L casamino acids) supplemented with 50 μg/mL kanamycin.\n• Prepare first growth plate, with 450 μL rich M9 media in each well. • Pipette 50 μL of starter culture into each well in rows B-G of the plate (leaving rows A and H blank). • Use a E. coli containing a different lacI variant for each row. • Seal first growth plate with gas permeable membrane. • Incubate plate in plate reader for 12 h to 14 h. • Grow to stationary to provide a reproducible starting point for each measurement. • Prepare second growth plate with 490 μL in each well. • Dilution series of isopropyl-β-D-thiogalactopyranoside (IPTG): 11 columns of a 2-fold serial dilution gradient and one column with zero IPTG. • Ten minutes before the end of the incubation cycle for the first growth plate, move the second growth plate to a heated station set to 47°C. • Ten minutes at 47°C will pre-warm the media in the plate to 37°C. • De-seal the first growth plate (after completion of the stationary-phase incubation cycle). • Pipette 10 μL from each well in the first growth plate to the corresponding well in the second growth plate. • 50-fold dilution; using a 96-channel pipetting head. • Seal second growth plate with gas permeable membrane. • Incubate second growth plate in plate reader for 160 minutes. • Sufficient for approximately 10-fold increase in cell density or 3.3 doublings. • Prepare third growth plate with 450 μL in each well. • Same dilution series as in second growth plate. • Ten minutes before the end of the incubation cycle for the second growth plate, move the third growth plate to a heated station set to 47°C. • De-seal the second growth plate (after completion of the 160 minute incubation cycle). • Pipette 50 μL from each well in the second growth plate to the corresponding well in the third growth plate. • 10-fold dilution; using a 96-channel pipetting head. • Seal third growth plate with gas permeable membrane. • Incubate third growth plate in plate reader for 160 minutes. • Prepare flow cytometry sample plate (round-bottom 96-well plate, Falcon, 351177). • Each well in rows B-G: 195 μL 1x PBS with 170 μg/mL chloramphenicol (Fisher BioReagents, cat. #BP904-100). • Rows A and H: PBS blanks, focusing fluid blanks, and space for calibration bead sample • At the end of the incubation cycle for the third growth plate, pipette 5 μL from each well to the corresponding well in the flow cytometry sample plate.\nFlow cytometry samples were measured with an Attune NxT flow cytometer equipped with a 96-well plate autosampler using a 488 nm excitation laser and a 530 nm ± 15 nm bandpass emission filter. Blank samples were measured with each batch of cell measurements, and an automated gating algorithm was used to discriminate cell events from non-cell events. Fluorescence calibration beads (Spherotech, part no. RCP-30-20A) were also measured with each batch of samples to facilitate calibration of flow cytometry data to molecules of equivalent fluorescein (MEF). […]",
  "note": "Several values for one entry are separate records, joined by “and”; a condition that tells them apart may be missing. Identical values can stand only once.",
  "data": [
    {"smiles": "CC(C)S[C@@H]1O[C@H](CO)[C@H](O)[C@H](O)[C@H]1O", "note": "[IPTG, isopropyl-β-D-thiogalactopyranoside]", "values": [
      {"measurement": "EC50", "value": "3 µmol/L and 2.99 µmol/L"}
    ]}
  ]
}
